Laboratory results taken from patent US20250313572A1, “MACROCYCLIC MCL-1 INHIBITORS AND METHODS OF USE” (AbbVie Inc., priority 2017, published 2025).
pKi: −log10 of the molar value. Read-outs that look alike come from different tables or passages of the source.

Legend:
[1] = target: GST-MCL-1 (Homo sapiens, UniProt Q07820); assay: TR-FRET MCL-1 binding assay (competition with probe F-Bak); conditions: for Ki: MCL-1 Binding Ki (nM, 10% HS), in the presence of 10% HS (human serum); for pKi: without HS, read-out: MCL-1 Binding Ki
Description: Tb-anti-GST antibody was purchased from Invitrogen (Catalog No. PV4216).
For the assay, an acoustic dispenser was used to prepare dilution series from 10 mM test compounds in 100% DMSO and directly transfer 160 nL into low volume 384-well assay plates. 8 μL of a protein/probe/antibody mix was then added to each well resulting in final concentrations listed below: • Test compound: 11 three-fold dilutions beginning at 25 μM
The samples were then mixed on a shaker for 1 minute and incubated for an additional 2 hours at room temperature. For each assay plate, a probe/antibody and protein/antibody/probe mixture were included as a negative and a positive control, respectively. Fluorescence was measured on the Envision (Perkin Elmer) using a 340/35 nm excitation filter and 520/525 (F-Bak) and 495/510 nm (Tb-labeled anti-his antibody) emission filters. […] The TR-FRET assay can be performed in the presence of varying concentrations of human serum (HS) or fetal bovine serum (FBS). Compounds were tested both without HS and in the presence of 10% HS.

[2] = test system: NCI-H929 human multiple myeloma tumor cell line; assay: NCI-H929 cell viability assay (CellTiter-Glo, 24 hours); type: cell-based
[3] = test system: AMO-1 human multiple myeloma tumor cell line; assay: AMO-1 cell viability assay (CellTiter-Glo, 24 hours); type: cell-based
[4] = Homo sapiens, NCI-H929, 24 h, read-out: H929 Viability IC50 (μM, 10% FBS), 10% FBS, 24 hours of compound treatment
[5] = Homo sapiens, AMO1, 24 h, read-out: AMO-1 Viability IC50 (μM, 10% FBS), 10% FBS, 24 hours of compound treatment

Sequence of GST-MCL-1 (Q07820 whole entry): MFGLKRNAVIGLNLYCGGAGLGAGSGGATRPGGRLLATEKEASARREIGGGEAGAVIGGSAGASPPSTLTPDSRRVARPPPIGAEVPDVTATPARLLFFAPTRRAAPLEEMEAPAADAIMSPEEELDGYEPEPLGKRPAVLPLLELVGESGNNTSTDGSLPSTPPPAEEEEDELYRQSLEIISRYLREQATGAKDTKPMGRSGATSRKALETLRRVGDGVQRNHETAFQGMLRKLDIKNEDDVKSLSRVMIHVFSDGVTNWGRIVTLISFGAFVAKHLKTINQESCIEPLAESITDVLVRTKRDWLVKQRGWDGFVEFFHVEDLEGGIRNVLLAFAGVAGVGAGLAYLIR

| SMILES | Ki [1] [nM] | pKi [1] | IC50 ([2]; read-out: H929 Viability IC50 (μM, 10% FBS), 10% FBS, 24 hours of compound treatment) [µM] | IC50 ([3]; read-out: AMO-1 Viability IC50 (μM, 10% FBS), 10% FBS, 24 hours of compound treatment) [µM] | IC50 [2, 4] [µM] | IC50 [3, 5] [µM] |
| --- | --- | --- | --- | --- | --- | --- |
| COCCOCCOCCOCC1(F)CC=C(c2nccc(COc3ccc4cc3C[C@H](C(=O)O)Oc3ncnc5sc(-c6ccc(F)cc6)c(c35)-c3c(C)c(Cl)c(c(Cl)c3C)O[C@H](CN3CCN(C)CC3)CO4)n2)CC1 (single isomer, unassigned) [Example 111, (7R,16R)-19,23-dichloro-1-(4-fluorophenyl)-10-({2-[(4R*)-4-fluoro-4-(2,5,8,11-tetraoxadodecan-1-yl)cyclohex-1-en-1-yl]pyrimidin-4-yl}methoxy)-20,22-dimethyl-16-[(4-methylpiperazin-1-yl)methyl]-7,8,15,16-tetrahydro-18,21-etheno-13,9-(metheno)-6,14,17-trioxa-2-thia-3,5-diazacyclononadeca[1,2,3-cd]indene-7-carboxylic Acid] | 0.101 | 10.85 | 0.000298 | 0.000161 | – | – |
| Cc1c(Cl)c2c(Cl)c(C)c1-c1c(-c3ccc(F)cc3)sc3ncnc(c13)O[C@@H](C(=O)O)Cc1cc(ccc1OCc1ccnc(-c3ccc(OC[C@H]4COCCN4C)cc3)n1)OC[C@@H](CN1CCN(C)CC1)O2 [Example 163, (7R,16R)-19,23-dichloro-1-(4-fluorophenyl)-20,22-dimethyl-10-{[2-(4-{[(3R)-4-methylmorpholin-3-yl]methoxy}phenyl)pyrimidin-4-yl]methoxy}-16-[(4-methylpiperazin-1-yl)methyl]-7,8,15,16-tetrahydro-18,21-etheno-9,13-(metheno)-6,14,17-trioxa-2-thia-3,5-diazacyclononadeca[1,2,3-cd]indene-7-carboxylic Acid] | 0.285 | 10.89 | – | – | 0.00134 | 0.000399 |
| Cc1c(Cl)c2c(Cl)c(C)c1-c1c(-c3ccc(F)cc3)sc3ncnc(c13)O[C@@H](C(=O)O)Cc1cc(ccc1OCc1ccnc([C@@]3(O)CCCC[C@@H]3O)n1)OC[C@@H](CN1CCN(C)CC1)O2 [Example 38, (7R,16R)-19,23-dichloro-10-({2-[(1S,2S)-1,2-dihydroxycyclohexyl]pyrimidin-4-yl}methoxy)-1-(4-fluorophenyl)-20,22-dimethyl-16-[(4-methylpiperazin-1-yl)methyl]-7,8,15,16-tetrahydro-18,21-etheno-9,13-(metheno)-6,14,17-trioxa-2-thia-3,5-diazacyclononadeca[1,2,3-cd]indene-7-carboxylic Acid] | 0.416 | 9.97 | – | – | 0.00577 | 0.00236 |
| COCCOCCOCCOCCOCCOC[C@]1(F)CC[C@@H](c2nccc(COc3ccc4cc3C[C@H](C(=O)O)Oc3ncnc5sc(-c6ccc(F)cc6)c(c35)-c3c(C)c(Cl)c(c(Cl)c3C)O[C@H](CN3CCN(C)CC3)CO4)n2)CC1 [Example 113, (7R,16R)-19,23-dichloro-10-({2-[(1s,4s)-4-fluoro-4-(2,5,8,11,14,17-hexaoxaoctadecan-1-yl)cyclohexyl]pyrimidin-4-yl}methoxy)-1-(4-fluorophenyl)-20,22-dimethyl-16-[(4-methylpiperazin-1-yl)methyl]-7,8,15,16-tetrahydro-18,21-etheno-13,9-(metheno)-6,14,17-trioxa-2-thia-3,5-diazacyclononadeca[1,2,3-cd]indene-7-carboxylic Acid] | 0.065 | 10.80 | – | – | 0.00064 | 0.00028 |
| COCCOCCOCCC1CCN(c2nccc(COc3ccc4cc3C[C@H](C(=O)O)Oc3ncnc5sc(-c6ccc(F)cc6)c(c35)-c3c(C)c(Cl)c(c(Cl)c3C)O[C@H](CN3CCN(C)CC3)CO4)n2)CC1 [Example 52, (7R,16R)-19,23-dichloro-1-(4-fluorophenyl)-10-{[2-(4-{2-[2-(2-methoxyethoxy)ethoxy]ethyl}piperidin-1-yl)pyrimidin-4-yl]methoxy}-20,22-dimethyl-16-[(4-methylpiperazin-1-yl)methyl]-7,8,15,6-tetrahydro-18,21-etheno-9,13-(metheno)-6,14,17-trioxa-2-thia-3,5-diazacyclononadeca[1,2,3-cd]indene-7-carboxylic Acid] | 3.31 | 9.46 | – | – | 0.00269 | 0.000648 |
| Cc1c(Cl)c2c(Cl)c(C)c1-c1c(-c3ccc(F)cc3)sc3ncnc(c13)O[C@@H](C(=O)O)Cc1cc(ccc1OCc1ccnc(N3CCC(F)(COCCOCC4COCCO4)CC3)n1)OC[C@@H](CN1CCN(C)CC1)O2 (stereo partly drawn) [Example 91, (7R,16R)-19,23-dichloro-10-({2-[4-({2-[(1,4-dioxan-2-yl)methoxy]ethoxy}methyl)-4-fluoropiperidin-1-yl]pyrimidin-4-yl}methoxy)-1-(4-fluorophenyl)-20,22-dimethyl-16-[(4-methylpiperazin-1-yl)methyl]-7,8,15,16-tetrahydro-18,21-etheno-13,9-(metheno)-6,14,17-trioxa-2-thia-3,5-diazacyclononadeca[1,2,3-cd]indene-7-carboxylic Acid] | 2.1 | 9.64 | – | – | 0.00192 | 0.00072 |
| COCCOCCO[C@]1(c2nccc(COc3ccc4cc3C[C@H](C(=O)O)Oc3ncnc5sc(-c6ccc(F)cc6)c(c35)-c3c(C)c(Cl)c(c(Cl)c3C)O[C@H](CN3CCN(C)CC3)CO4)n2)CC[C@@H](OCC2COCCO2)CC1 (stereo partly drawn) [Example 121, (7R,16R)-19,23-dichloro-10-[(2-{(1r,4r)-4-[(1,4-dioxan-2-yl)methoxy]-1-[2-(2-methoxyethoxy)ethoxy]cyclohexyl}pyrimidin-4-yl)methoxy]-1-(4-fluorophenyl)-20,22-dimethyl-16-[(4-methylpiperazin-1-yl)methyl]-7,8,15,16-tetrahydro-18,21-etheno-9,13-(metheno)-6,14,17-trioxa-2-thia-3,5-diazacyclononadeca[1,2,3-cd]indene-7-carboxylic Acid] | 0.231 | 10.28 | – | – | 0.00956 | 0.00508 |
| COCCOCCOC[C@H]1CC=C(c2nccc(COc3ccc4cc3C[C@H](C(=O)O)Oc3ncnc5sc(-c6ccc(F)cc6)c(c35)-c3c(C)c(Cl)c(c(Cl)c3C)O[C@H](CN3CCN(C)CC3)CO4)n2)CC1 [Example 127, (7R,16R)-19,23-dichloro-1-(4-fluorophenyl)-10-({2-[(4R)-4-{[2-(2-methoxyethoxy)ethoxy]methyl}cyclohex-1-en-1-yl]pyrimidin-4-yl}methoxy)-20,22-dimethyl-16-[(4-methylpiperazin-1-yl)methyl]-7,8,15,16-tetrahydro-18,21-etheno-13,9-(metheno)-6,14,17-trioxa-2-thia-3,5-diazacyclononadeca[1,2,3-cd]indene-7-carboxylic acid] | 0.339 | 10.55 | – | – | 0.000385 | 0.000124 |
| COCCOCCOCCOCCOCCOCCOCCC(=O)N1CCC[C@@H]1c1nccc(COc2ccc3cc2C[C@H](C(=O)O)Oc2ncnc4sc(-c5ccc(F)cc5)c(c24)-c2ccc(c(Cl)c2C)O[C@H](CN2CCN(C)CC2)CO3)n1 [Example 43, (7R,16R)-19-chloro-1-(4-fluorophenyl)-20-methyl-16-[(4-methylpiperazin-1-yl)methyl]-10-({2-[(2R)-1-(23-oxo-2,5,8,11,14,17,20-heptaoxatricosan-23-yl)pyrrolidin-2-yl]pyrimidin-4-yl}methoxy)-7,8,15,16-tetrahydro-18,21-etheno-13,9-(metheno)-6,14,17-trioxa-2-thia-3,5-diazacyclononadeca[1,2,3-cd]indene-7-carboxylic Acid] | 39.4 | 7.39 | – | – | > 1 | > 1 |
| COCCOCCOCCOCCOCC1(c2nccc(COc3ccc4cc3C[C@H](C(=O)O)Oc3ncnc5sc(-c6ccc(F)cc6)c(c35)-c3c(C)c(Cl)c(c(Cl)c3C)O[C@H](CN3CCN(C)CC3)CO4)n2)CCC1 [Example 58, (7R,16R)-19,23-dichloro-1-(4-fluorophenyl)-20,22-dimethyl-16-[(4-methylpiperazin-1-yl)methyl]-10-({2-[1-(2,5,8,11,14-pentaoxapentadecan-1-yl)cyclobutyl]pyrimidin-4-yl}methoxy)-7,8,15,16-tetrahydro-18,21-etheno-13,9-(metheno)-6,14,17-trioxa-2-thia-3,5-diazacyclononadeca[1,2,3-cd]indene-7-carboxylic Acid] | 0.161 | 10.30 | – | – | 0.00056 | 0.000378 |
| COCCOCCOCCOCCOc1nccc(COc2ccc3cc2C[C@H](C(=O)O)Oc2ncnc4sc(-c5ccc(F)cc5)c(c24)-c2c(C)c(Cl)c(c(Cl)c2C)O[C@H](CN2CCN(C)CC2)CO3)n1 [Example 89, (7R,16R)-19,23-dichloro-1-(4-fluorophenyl)-20,22-dimethyl-16-[(4-methylpiperazin-1-yl)methyl]-10-({2-[(2,5,8,11-tetraoxatridecan-13-yl)oxy]pyrimidin-4-yl}methoxy)-7,8,15,16-tetrahydro-18,21-etheno-13,9-(metheno)-6,14,17-trioxa-2-thia-3,5-diazacyclononadeca[1,2,3-cd]indene-7-carboxylic Acid] | 0.485 | 10.17 | – | – | 0.00299 | 0.00262 |
